This is an account of results in patent US20250360092A1, “Carotenoid-fortified Yogurt and Methods For Preparing The Same” (Maravilla, LLC, priority 2024, published 2025).

This data set is classed as physicochemical. The note with it: start of the thirty-five-day storage at 4° C. On the procedure:
Lutein and Zeaxanthin Stability Over Shelf Life. […] The stability may be influenced by the way lutein was added to the yogurt. When lutein is introduced post-fermentation via stirring, it tends to degrade in a concentration-dependent manner. […] This phenomenon may be attributed to the consumption of oxygen in milk by Lactobacillus bulgaricus during fermentation. […] The samplings were weighted into […] falcon tubes and 4 milliliters of tetrahydrofuran containing 0.1% was added to each sampling. The mixtures were vortexed for 30 seconds and centrifuged at 3500 grams for 5 minute at 20° C. […] The three extracts were then pooled and dried in the vacuum centrifuge at less than 30° C. and the dry residue was resuspended in 10 milliliters of acetone and read in the spectrophotometer. […] Carotenoid profiling, relative purity and quantification were carried out in a HPLC 1260 Infinity Series (Agilent Technologies, Santa Clara, CA, USA), equipped with a diode array detector, quaternary pump, degasser, thermostatically-controlled column compartment, and a thermostatically-controlled autosampler. […] For carotenoid quantification in human serum, 100 microliters of a sampling were injected. […] Differences in serum carotenoid concentration at each time point were assessed by paired t-test.

For `CC1=C(/C=C/C(C)=C/C=C/C(C)=C/C=C/C=C(C)/C=C/C=C(C)/C=C/C2=C(C)C[C@@H](O)CC2(C)C)C(C)(C)C[C@H](O)C1` [Zeaxanthin, zeaxanthin], the “starting concentration in the lutein-fortified yogurt sample” value was 0.71±0.02 mg/100 g.

Turning to `CC1=C[C@H](O)CC(C)(C)[C@H]1/C=C/C(C)=C/C=C/C(C)=C/C=C/C=C(C)/C=C/C=C(C)/C=C/C1=C(C)C[C@@H](O)CC1(C)C` [Lutein, lutein], the “starting concentration in the lutein-fortified yogurt sample” value is 14.60±0.41 mg/100 g.
